Holding throughout (assay type): biochemical
Test [1] addresses T1, SEX4 (Arabidopsis thaliana, UniProt Q9FEB5).
T1 construct: gift from Dr. Gentry's group, University of Kentucky College of Medicine
T1 sequence (Q9FEB5 90-379 limits assumed): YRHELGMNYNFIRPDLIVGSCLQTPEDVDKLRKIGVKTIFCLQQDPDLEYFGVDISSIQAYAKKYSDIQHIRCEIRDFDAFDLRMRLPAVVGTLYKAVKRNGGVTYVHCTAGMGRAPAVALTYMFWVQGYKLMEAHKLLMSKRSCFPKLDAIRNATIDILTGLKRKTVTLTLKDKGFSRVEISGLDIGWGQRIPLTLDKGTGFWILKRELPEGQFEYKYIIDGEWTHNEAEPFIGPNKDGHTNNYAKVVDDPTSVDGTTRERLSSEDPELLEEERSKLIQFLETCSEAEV
As to the kind of experiment: Phosphatase assay against pNPP, SEX4. The conditions noted are these: for Inhibition model, pNPP assay, SEX4: determined by steady-state kinetic measurements. As to the method: (§1) The Arabidopsis thaliana SEX4 lacking the first 89 amino acids (Δ89-SEX4) and LSF2 proteins were kindly provided by Dr. Gentry’s group at the University of Kentucky College of Medicine (Lexington, KY, USA). para-nitrophenyl phosphate disodium salt hexahydrate (pNPP), Malachite green oxalate salt, ammonium molybdate tetrahydrate, and amylopectin from potato starch were purchased from Sigma-Aldrich. Absorbance was measured on a Beckman Coulter (Brea, CA, USA) DU 700 Series UV/Vis Spectrophotometer.
(§2) The phosphatase activity of SEX4 or LSF2 against pNPP in the presence or absence of an inhibitor was measured in this assay. The reaction (20 μL of total volume) of A. thaliana SEX4 or LSF2 was performed in the reaction mixture containing 1~2 μg SEX4 or LSF2, 1X assay buffer pH 5.5 (20 mM sodium acetate, 10 mM bis-Tris, 10 mM Tris, pH with HCl), 5 mM Dithiothreitol (DTT), and 50 mM pNPP (Sigma-Aldrich, Wien, Austria). It was incubated at 37 °C for 10 min with or without an inhibitor. The reaction was terminated by adding 80 μL of 0.25 N NaOH, and absorbance was measured at 410 nm.
(§3) The steady-state kinetic parameters were determined by varying substrate concentrations (pNPP 0.5–50 mM; amylopectin 5–45 μg) with or without an inhibitor. The data were fitted by nonlinear regression to the Michaelis–Menten equation using GraphPad PRISM 9.0 software to derive KM and kcat values. […] Inhibition constants (Ki) and inhibition types were determined by varying substrate concentrations in the absence of an inhibitor and in the presence of an inhibitor at the IC50 concentration.
(§4) The process of finding an inhibitor proceeded as follows (Figure 1). […] Then, reproduction experiments were performed with these compounds to select candidate substances. […] In order to assess any difference in selectivity between SEX4 and LSF2 for the selected candidates, the IC50 values of LSF2 were obtained through the pNPP and amylopectin assays and compared with those of SEX4.
(§5) The IC50 values were calculated directly from regression curves using GraphPad PRISM software. The IC50 graph was fitted to the Logistic Equation.

Test [2] addresses T1, SEX4. As to the kind of experiment: Phosphatase assay against amylopectin, SEX4. As to conditions: for Inhibition model, amylopectin assay, SEX4: determined by steady-state kinetic measurements; for Selectivity between SEX4 and LSF2: comparison of IC50 values for SEX4 and LSF2. The protocol:
as §1
(§6) The phosphatase activity of SEX4 or LSF2 toward amylopectin in the absence or presence of an inhibitor was measured in a reaction mixture with 2 μg SEX4 or LSF2 at 37 °C in 20 μL volume. The reaction mixture contained 100 mM sodium acetate, 50 mM bis-Tris, 50 mM Tris (pH 6.5), 10 mM DTT, and 45 μg amylopectin with or without an inhibitor. […] The release of free inorganic phosphate was determined by measuring the absorbance at 620 nm and the K2HPO4 standard curve.
as §3, §4, §5

Test [3] concerns the target T2, LSF2 (Arabidopsis thaliana, UniProt Q9SRK5).
T2 construct: gift from Dr. Gentry's group, University of Kentucky College of Medicine
In words: Phosphatase assay against pNPP, LSF2. The protocol: as §1, §2, §3, §4

In test [4] the target is T2, LSF2. In words: Phosphatase assay against amylopectin, LSF2. As to the method: as §1, §6, §3, §4
The mark [5] stands for this setting: 50 mM pNPP, inhibitor 0–0.2 mM, average ± standard error of three measurements, read-out: IC50, pNPP assay, SEX4.
Setting [6] is: pNPP 0.5–50 mM, inhibitor at IC50 concentration, average ± standard error of three measurements, read-out: Ki, pNPP assay, SEX4.
[7] abbreviates: 45 μg amylopectin, inhibitor 0–0.2 mM, average ± standard error of three measurements, read-out: IC50, amylopectin assay, SEX4.
Setting [8] is: amylopectin 5–45 μg, inhibitor at IC50 concentration, average ± standard error of three measurements, read-out: Ki, amylopectin assay, SEX4.
The mark [9] stands for this setting: average ± standard error of three measurements, read-out: IC50, pNPP assay, LSF2.
The mark [10] stands for this setting: not determined with the maximum concentration of candidate compounds, read-out: IC50, amylopectin assay, LSF2.

T2 sequence (Q9SRK5 62-282): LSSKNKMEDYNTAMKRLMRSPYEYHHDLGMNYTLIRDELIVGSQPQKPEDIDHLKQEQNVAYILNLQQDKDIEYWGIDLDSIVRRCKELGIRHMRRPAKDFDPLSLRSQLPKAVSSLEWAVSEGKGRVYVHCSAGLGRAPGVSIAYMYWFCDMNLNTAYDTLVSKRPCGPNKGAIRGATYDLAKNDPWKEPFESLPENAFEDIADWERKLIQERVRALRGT

For orientation: IC50 means the concentration at which inhibition is half-maximal. A word on the Ki: it is the dissociation constant of the complex between target and ligand, obtained from inhibition or displacement. Turning to `CC(C)=CCc1c(-c2ccc(O)cc2O)oc2c(C3C=C(C)CC(C(=O)c4ccc(O)cc4O)C3c3ccc(O)cc3O)c(O)cc(O)c2c1=O` (stereo not shown) [Compound H08, Moracenin B], the half-maximal inhibitory concentration (IC50) at SEX4 [1] (setting [5]) is 18.69 ± 0.026 µM; at SEX4 [2] (setting [7]) it was 16.49 ± 0.051 µM; at LSF2 [3] (setting [9]), 22.92 ± 0.025 µM; on LSF2 [4] (setting [10]) it was > 50 µM. Besides, the “Inhibition model, pNPP assay, SEX4” value at SEX4 [1] is on record as “Uncompetitive”. The figures for the Ki at SEX4 [1] (setting [6]) and at SEX4 [2] (setting [8]) were 20.84 ± 0.023 µM and 31.12 ± 0.027 µM, respectively. Besides, at SEX4 [2], the “Inhibition model, amylopectin assay, SEX4” value is “Uncompetitive”.

For `O=C(O)c1cc(O)c2c(c1)[C@@H]([C@@H]1c3cc(C(=O)O)cc(O)c3C(=O)c3c(OC4OC(CO)C(O)C(O)C4O)cccc31)c1cccc(OC3OC(CO)C(O)C(O)C3O)c1C2=O` (stereo partly shown) [Compound G11, Sennoside], the 50% inhibitory concentration (IC50) was 25.75 ± 0.017 µM on SEX4 [1] (setting [5]), 9.72 ± 0.008 µM at SEX4 [2] (setting [7]), 23.03 ± 0.029 µM at LSF2 [3] (setting [9]) and > 50 µM on LSF2 [4] (setting [10]). For the same compound, at SEX4 [1], the “Inhibition model, pNPP assay, SEX4” value is listed as “Uncompetitive”. In addition, the Ki on SEX4 [1] (setting [6]) is 33.87 ± 0.019 µM; at SEX4 [2] (setting [8]), 7.81 ± 0.005 µM. The “Selectivity between SEX4 and LSF2” value on SEX4 [2] was “selective for SEX4”. Moreover, the “Inhibition model, amylopectin assay, SEX4” value on SEX4 [2] was “Competitive”.

Take `CCCc1c(O)nc2[nH]c(=O)sc2c1C` [Compound D04, Thiazolo[4,5-b]pyridin-2(3H)-one, 5-hydroxy-7-methyl-6-propyl]: the IC50 on SEX4 [1] (setting [5]) was 21.6 ± 0.008 µM; at SEX4 [2] (setting [7]) it was 57.33 ± 0.34 µM; on LSF2 [3] (setting [9]) it was 44.82 ± 0.022 µM. For the same compound, at SEX4 [1], the “Inhibition model, pNPP assay, SEX4” value is given as “Uncompetitive”. Also, the Ki came to 25.41 ± 0.012 µM on SEX4 [1] (setting [6]) and 28.31 ± 0.014 µM on SEX4 [2] (setting [8]). Besides, the “Inhibition model, amylopectin assay, SEX4” value on SEX4 [2] is on record as “Competitive”.

Consider `O=C1C=CC(=O)c2c(O)ccc(O)c21` [Compound F09, Naphthazarin], for which, on SEX4 [1], the IC50 is 15.83 ± 0.018 µM; the Ki was determined as 39.81 ± 0.026 µM; the “Inhibition model, pNPP assay, SEX4” value was “Mixed-model”. Besides, at SEX4 [2], it took 7.49 ± 0.016 µM to reach half-maximal inhibition (IC50); the Ki was determined as 16.42 ± 0.012 µM; the “Selectivity between SEX4 and LSF2” value is recorded as “selective for SEX4”; the “Inhibition model, amylopectin assay, SEX4” value is on record as “Uncompetitive”. This compound also yielded an IC50 against LSF2 [3] of 23.97 ± 0.028 µM. Moreover, at LSF2 [4], the IC50 was > 50 µM.

With `O=C(OCC1OC(OC(=O)c2cc(O)c(O)c(O)c2)C(OC(=O)c2cc(O)c(O)c(O)c2)C(OC(=O)c2cc(O)c(O)c(O)c2)C1OC(=O)c1cc(O)c(O)c(O)c1)c1cc(O)c(O)c(O)c1` [Compound G07, Penta-O-gallolyl-β-D-glucose], the IC50 was 30.91 ± 0.021 µM on SEX4 [1] (read-out: IC50, pNPP assay, SEX4); 38.61 ± 0.022 µM on SEX4 [2] (read-out: IC50, amylopectin assay, SEX4); 13.39 ± 0.036 µM at LSF2 [3] (setting [9]); > 50 µM at LSF2 [4] (setting [10]). For the same compound, the Ki on SEX4 [1] (read-out: Ki, pNPP assay, SEX4) stood at 37.31 ± 0.026 µM; on SEX4 [2] (read-out: Ki, amylopectin assay, SEX4) it was 46.4 ± 0.032 µM.

As for `CCCCCC/C=C\CCCCCCCc1cccc(O)c1C(=O)O` [Compound F05, Ginkgolic acid], the IC50 was 5.18 ± 0.014 µM against SEX4 [1], 21.1 ± 0.021 µM at SEX4 [2] (setting [7]), 21.26 ± 0.008 µM on LSF2 [3] (setting [9]) and > 50 µM at LSF2 [4] (setting [10]). In addition, the “IC50 for SEX4 compared with that of LSF2, pNPP assay” value at SEX4 [1] (SEX4 vs LSF2) is “approximately four times lower”. At SEX4 [1], the “Inhibition model, pNPP assay, SEX4” value is reported as “Uncompetitive”. For the same compound, the values for the Ki at SEX4 [1] (setting [6]) and at SEX4 [2] (setting [8]) were 6.87 ± 0.007 µM and 20.81 ± 0.021 µM, respectively. Further, at SEX4 [2], the “Inhibition model, amylopectin assay, SEX4” value was “Uncompetitive”.

In the case of `Cc1c(O)nc2[nH]c(=O)sc2c1C` [Compound H03, Thiazolo[4,5-b]pyridin-2(3H)-one, 5-hydroxy-6,7-dimethyl], the IC50 on SEX4 [1] (setting [5]) was 39.58 ± 0.016 µM; on SEX4 [2] (setting [7]) it was 13.05 ± 0.024 µM; on LSF2 [3] (setting [9]) it was 49.58 ± 0.047 µM. Moreover, on SEX4 [1], the “Inhibition model, pNPP assay, SEX4” value is given as “Uncompetitive”. Also, the values for the Ki at SEX4 [1] (setting [6]) and at SEX4 [2] (setting [8]) were 42.34 ± 0.037 µM and 29.84 ± 0.025 µM, respectively. In addition, the “Inhibition model, amylopectin assay, SEX4” value on SEX4 [2] is recorded as “Competitive”.
